What was measured:
Format in all cases: in vivo
Zea mays [1] = experiment: Pre-emergence herbicidal activity, ZEAMX; settings: Application pre-emergence, 1000 g/Ha, evaluated after 13 days, scale 0-5
Procedure: (§1) Seeds of a variety of test species were sown in standard soil in pots. After cultivation for one day (pre-emergence) under controlled conditions in a glasshouse (at 24/16° C., day/night; 14 hours light; 65% humidity), the plants were sprayed with an aqueous spray solution derived from the formulation of the technical active ingredient in acetone/water (50:50) solution containing 0.5% Tween 20 (polyoxyethelyene sorbitan monolaurate, CAS RN 9005-64-5). The test plants were then grown in a glasshouse under controlled conditions (at 24/16° C., day/night; 14 hours light; 65% humidity) and watered twice daily. After 13 days, the test was evaluated (5=total damage to plant; 0=no damage to plant).

Zea mays [2] = experiment: Post-emergence herbicidal activity, ZEAMX; settings: Application post-emergence, 1000 g/Ha, evaluated after 13 days, scale 0-5
Procedure: (§2) Seeds of a variety of test species were sown in standard soil in pots. After 8 days cultivation (post-emergence) under controlled conditions in a glasshouse (at 24/16° C., day/night; 14 hours light; 65% humidity), the plants were sprayed with an aqueous spray solution derived from the formulation of the technical active ingredient in acetone/water (50:50) solution containing 0.5% Tween 20 (polyoxyethelyene sorbitan monolaurate, CAS RN 9005-64-5). The test plants were then grown in a glasshouse under controlled conditions (at 24/16° C., day/night; 14 hours light; 65% humidity) and watered twice daily. After 13 days, the test was evaluated (5=total damage to plant; 0=no damage to plant).

Amaranthus retroflexus [3] = experiment: Pre-emergence herbicidal activity, AMARE; settings: Application pre-emergence, 1000 g/Ha, evaluated after 13 days, scale 0-5
Procedure: as §1

Amaranthus retroflexus [4] = experiment: Post-emergence herbicidal activity, AMARE; settings: Application post-emergence, 1000 g/Ha, evaluated after 13 days, scale 0-5
Procedure: as §2

Echinochloa crus-galli [5] = experiment: Pre-emergence herbicidal activity, ECHCG; settings: Application pre-emergence, 1000 g/Ha, evaluated after 13 days, scale 0-5
Procedure: as §1

Alopecurus myosuroides [6] = experiment: Post-emergence herbicidal activity, ALOMY; settings: Application post-emergence, 1000 g/Ha, evaluated after 13 days, scale 0-5
Procedure: as §2

Abutilon theophrasti [7] = experiment: Post-emergence herbicidal activity, ABUTH; settings: Application post-emergence, 1000 g/Ha, evaluated after 13 days, scale 0-5
Procedure: as §2

Echinochloa crus-galli [8] = experiment: Post-emergence herbicidal activity, ECHCG; settings: Application post-emergence, 1000 g/Ha, evaluated after 13 days, scale 0-5
Procedure: as §2

Alopecurus myosuroides [9] = experiment: Pre-emergence herbicidal activity, ALOMY; settings: Application pre-emergence, 1000 g/Ha, evaluated after 13 days, scale 0-5
Procedure: as §1

Setaria faberi [10] = experiment: Post-emergence herbicidal activity, SETFA; settings: Application post-emergence, 1000 g/Ha, evaluated after 13 days, scale 0-5
Procedure: as §2

Abutilon theophrasti [11] = experiment: Pre-emergence herbicidal activity, ABUTH; settings: Application pre-emergence, 1000 g/Ha, evaluated after 13 days, scale 0-5
Procedure: as §1

Setaria faberi [12] = experiment: Pre-emergence herbicidal activity, SETFA; settings: Application pre-emergence, 1000 g/Ha, evaluated after 13 days, scale 0-5
Procedure: as §1

| SMILES | ZEAMX damage score (Zea mays [1]) | ZEAMX damage score (Zea mays [2]) | AMARE damage score (Amaranthus retroflexus [3]) | AMARE damage score (Amaranthus retroflexus [4]) | ECHCG damage score (Echinochloa crus-galli [5]) | ALOMY damage score (Alopecurus myosuroides [6]) | ABUTH damage score (Abutilon theophrasti [7]) | ECHCG damage score (Echinochloa crus-galli [8]) | ALOMY damage score (Alopecurus myosuroides [9]) | SETFA damage score (Setaria faberi [10]) | ABUTH damage score (Abutilon theophrasti [11]) | SETFA damage score (Setaria faberi [12]) |
| --- | --- | --- | --- | --- | --- | --- | --- | --- | --- | --- | --- | --- |
| CN1CC(O)N(c2cc(C(F)(F)F)c(-c3ccc(C#N)cc3)cn2)C1=O (stereo not drawn) [Compound A16] | 3 | 5 | 5 | 5 | 3 | 5 | 5 | 5 | 2 | 5 | 3 | 4 |
| CN1CC(O)N(c2cc(C(C)(C)F)ccn2)C1=O (stereo not drawn) [Compound A38] | 0 | 4 | 5 | 5 | 4 | 5 | 5 | 5 | 4 | 5 | 5 | 4 |
| CN1CC(O)N(c2cc(C(F)(F)F)c(-c3cccc(NS(C)(=O)=O)c3)cn2)C1=O (stereo not drawn) [Compound A8] | 2 | 1 | 2 | 5 | 1 | 1 | 4 | 1 | 1 | 1 | 2 | 3 |
| CN1CC(O)N(c2cc(C(F)(F)F)c(-c3cccc(S(=O)(=O)N(C)C)c3)cn2)C1=O (stereo not drawn) [Compound A10] | 3 | 4 | 5 | 5 | 5 | 5 | 5 | 5 | 4 | 5 | 5 | 4 |
| CN1CC(O)N(c2cc(C(F)(F)F)c(-c3ccsc3)cn2)C1=O (stereo not drawn) [Compound A4, 4-hydroxy-1-methyl-3-[5-(3-thienyl)-4-(trifluoromethyl)-2-pyridyl]imidazolidin-2-one] | 2 | 0 | 5 | 5 | 4 | 4 | 5 | 5 | 3 | 5 | 2 | 3 |
| COc1ccc(-c2cnc(N3C(=O)N(C)CC3O)cc2C(F)(F)F)c(OC)c1 (stereo not drawn) [Compound A15] | 0 | 1 | 2 | 5 | 1 | 3 | 5 | 4 | 1 | 3 | 3 | 2 |
| CN1CC(O)N(c2cc(C(F)(F)F)c(Cl)cn2)C1=O (stereo not drawn) [Compound A36] | 2 | 5 | 5 | 5 | 5 | 5 | 5 | 5 | 4 | 5 | 5 | 4 |
| CN1CC(O)N(c2cc(C(C)(F)F)ccn2)C1=O (stereo not drawn) [Compound A37] | 2 | 4 | 5 | 5 | 3 | 5 | 5 | 4 | 4 | 5 | 5 | 1 |
| CN1CC(O)N(c2cc(C(F)(F)F)c(I)cn2)C1=O (stereo not drawn) [Compound A5, 4-hydroxy-3-[5-iodo-4-(trifluoromethyl)-2-pyridyl]-1-methyl-imidazolidin-2-one] | 4 | 5 | 5 | 5 | 5 | 5 | 5 | 5 | 4 | 5 | 5 | 5 |
| CN1CC(O)N(c2cc(C(F)(F)F)c(-c3ccc(F)cc3)cn2)C1=O (stereo not drawn) [Compound A2] | 5 | 4 | 5 | 5 | 5 | 5 | 5 | 5 | 4 | 5 | 4 | 5 |
| CN1CC(O)N(c2cc(C(F)(F)F)c(-c3ccccc3)cn2)C1=O (stereo not drawn) [Compound A3] | 4 | 2 | 5 | 5 | 5 | 5 | 5 | 5 | 4 | 5 | 5 | 5 |
| COc1ccccc1-c1cnc(N2C(=O)N(C)CC2O)cc1C(F)(F)F (stereo not drawn) [Compound A18] | 1 | 5 | 2 | 5 | 3 | 2 | 5 | 4 | 2 | 2 | 2 | 1 |
| CN1CC(O)N(c2cc(C(F)(F)F)c(-c3ccc(C#N)s3)cn2)C1=O (stereo not drawn) [Compound A14] | 2 | 3 | 5 | 5 | 3 | 4 | 5 | 5 | 2 | 5 | 3 | 2 |
| Cc1ccccc1-c1cnc(N2C(=O)N(C)CC2O)cc1C(F)(F)F (stereo not drawn) [Compound A7] | 1 | 3 | 3 | 5 | 1 | 4 | 5 | 5 | 1 | 5 | 2 | 1 |
| CN1CC(O)N(c2cc(C(F)(F)F)ccn2)C1=O (stereo not drawn) [Compound A1, 4-hydroxy-1-methyl-3-[4-(trifluoromethyl)-2-pyridyl]imidazolidin-2-one] | 3 | 5 | 5 | 5 | 5 | 5 | 5 | 5 | 4 | 5 | 5 | 4 |
| COc1cnc(N2C(=O)N(C)CC2O)cc1C(F)(F)F (stereo not drawn) [Compound A39] | 2 | 4 | 5 | 5 | 4 | 5 | 5 | 5 | 4 | 5 | 5 | 4 |
| CN1CC(O)N(c2cc(C(F)(F)F)c(Br)cn2)C1=O (stereo not drawn) [Compound A19] | 5 | 4 | 5 | 5 | 5 | 5 | 5 | 5 | 5 | 5 | 5 | 5 |

From US20160251332A1, “Herbicidal Compounds” (SYNGENTA PARTICIPATIONS AG, priority 2013, published 2016)
